Data reported in publication PMC5053573, “Structure-Based Design of Tetrahydroisoquinoline-7-carboxamides as Selective Discoidin Domain Receptor 1 (DDR1) Inhibitors” (Journal of Medicinal Chemistry, 2016).

Key:
Test in all cases: biochemical
Conditions in all cases: read-out: %Ctrl @ 1000nM
PRKG1 = PRKG1 (Homo sapiens, UniProt Q13976)
PIK3C2B = PIK3C2B (Homo sapiens, UniProt O00750)
ARK5 = target: T1, ARK5 (Homo sapiens, UniProt O60285)
T1 construct: gene NUAK1

PRKD2 = PRKD2 (Homo sapiens, UniProt Q9BZL6)
[1] = target: ABL1(Y253F)-phosphorylated (Homo sapiens, UniProt P00519, Y253F)
ALK = ALK (Homo sapiens, UniProt Q9UM73)
PIK3CB = PIK3CB (Homo sapiens, UniProt P42338)
AKT1 = AKT1 (Homo sapiens, UniProt P31749)
EGFR(T790M) = EGFR(T790M) (Homo sapiens, UniProt P00533, T790M)
NDR2 = target: T2, NDR2 (Homo sapiens, UniProt Q9Y2H1)
T2 construct: gene STK38L

ACVR2B = ACVR2B (Homo sapiens, UniProt Q13705)
ANKK1 = ANKK1 (Homo sapiens, UniProt Q8NFD2)
ANKK1, sequence (Q8NFD2 whole entry): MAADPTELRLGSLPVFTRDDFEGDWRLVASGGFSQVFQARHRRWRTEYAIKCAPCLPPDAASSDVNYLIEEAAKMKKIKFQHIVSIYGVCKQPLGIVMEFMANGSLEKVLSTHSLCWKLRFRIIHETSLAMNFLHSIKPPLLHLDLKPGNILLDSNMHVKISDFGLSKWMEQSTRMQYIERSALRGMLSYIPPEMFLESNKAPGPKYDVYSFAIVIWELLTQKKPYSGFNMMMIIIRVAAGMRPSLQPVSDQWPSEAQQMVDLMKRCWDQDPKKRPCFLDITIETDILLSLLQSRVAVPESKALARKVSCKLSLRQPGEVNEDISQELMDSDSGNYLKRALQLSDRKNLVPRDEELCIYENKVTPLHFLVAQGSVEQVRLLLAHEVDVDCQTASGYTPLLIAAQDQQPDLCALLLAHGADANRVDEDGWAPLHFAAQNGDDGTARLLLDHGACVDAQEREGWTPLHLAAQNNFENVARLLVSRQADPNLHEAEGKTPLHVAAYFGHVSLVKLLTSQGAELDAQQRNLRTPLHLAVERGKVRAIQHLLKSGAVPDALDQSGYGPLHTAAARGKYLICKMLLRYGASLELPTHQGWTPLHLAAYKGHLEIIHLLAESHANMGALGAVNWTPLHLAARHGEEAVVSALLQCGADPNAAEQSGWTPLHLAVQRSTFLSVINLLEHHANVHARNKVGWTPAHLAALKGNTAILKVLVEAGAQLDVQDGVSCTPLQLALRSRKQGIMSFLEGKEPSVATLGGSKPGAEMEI

CDK2 = CDK2 (Homo sapiens, UniProt P24941)
[2] = target: ABL1(H396P)-phosphorylated (Homo sapiens, UniProt P00519, H396P)
CSNK1A1L = CSNK1A1L (Homo sapiens, UniProt Q8N752)
PIK3CA(Q546K) = PIK3CA(Q546K) (Homo sapiens, UniProt P42336, Q546K)
PIK3CA(Q546K), sequence (P42336 whole entry Q546K): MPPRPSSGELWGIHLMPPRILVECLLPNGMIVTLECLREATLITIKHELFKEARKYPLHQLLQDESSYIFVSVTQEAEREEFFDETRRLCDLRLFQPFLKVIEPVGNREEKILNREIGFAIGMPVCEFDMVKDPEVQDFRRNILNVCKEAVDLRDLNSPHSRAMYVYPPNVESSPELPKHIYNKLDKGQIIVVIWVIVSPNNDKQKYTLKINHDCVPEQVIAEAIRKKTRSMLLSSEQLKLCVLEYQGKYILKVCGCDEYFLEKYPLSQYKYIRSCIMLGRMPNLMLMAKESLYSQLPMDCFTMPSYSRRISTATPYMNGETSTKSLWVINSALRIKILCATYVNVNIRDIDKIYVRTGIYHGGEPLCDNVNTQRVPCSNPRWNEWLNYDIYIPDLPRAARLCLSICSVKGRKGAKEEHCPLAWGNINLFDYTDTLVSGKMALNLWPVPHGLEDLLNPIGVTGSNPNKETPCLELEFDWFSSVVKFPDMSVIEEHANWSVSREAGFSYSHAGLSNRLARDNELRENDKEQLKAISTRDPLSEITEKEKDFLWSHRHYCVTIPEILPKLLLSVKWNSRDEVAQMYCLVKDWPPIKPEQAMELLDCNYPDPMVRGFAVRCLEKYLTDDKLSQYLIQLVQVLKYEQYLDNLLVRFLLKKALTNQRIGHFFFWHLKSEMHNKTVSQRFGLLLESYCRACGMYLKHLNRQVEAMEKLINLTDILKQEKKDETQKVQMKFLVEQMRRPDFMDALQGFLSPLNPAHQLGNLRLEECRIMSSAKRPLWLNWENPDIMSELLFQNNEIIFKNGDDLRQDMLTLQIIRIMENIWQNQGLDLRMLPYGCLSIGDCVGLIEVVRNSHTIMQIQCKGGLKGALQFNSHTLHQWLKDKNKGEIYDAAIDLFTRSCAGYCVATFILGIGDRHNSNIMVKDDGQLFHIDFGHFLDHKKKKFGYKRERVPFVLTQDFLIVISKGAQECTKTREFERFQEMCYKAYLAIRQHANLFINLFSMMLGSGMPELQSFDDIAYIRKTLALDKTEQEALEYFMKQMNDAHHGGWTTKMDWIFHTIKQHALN

MAP4K2 = MAP4K2 (Homo sapiens, UniProt Q12851)
MAP4K2, sequence (Q12851 whole entry): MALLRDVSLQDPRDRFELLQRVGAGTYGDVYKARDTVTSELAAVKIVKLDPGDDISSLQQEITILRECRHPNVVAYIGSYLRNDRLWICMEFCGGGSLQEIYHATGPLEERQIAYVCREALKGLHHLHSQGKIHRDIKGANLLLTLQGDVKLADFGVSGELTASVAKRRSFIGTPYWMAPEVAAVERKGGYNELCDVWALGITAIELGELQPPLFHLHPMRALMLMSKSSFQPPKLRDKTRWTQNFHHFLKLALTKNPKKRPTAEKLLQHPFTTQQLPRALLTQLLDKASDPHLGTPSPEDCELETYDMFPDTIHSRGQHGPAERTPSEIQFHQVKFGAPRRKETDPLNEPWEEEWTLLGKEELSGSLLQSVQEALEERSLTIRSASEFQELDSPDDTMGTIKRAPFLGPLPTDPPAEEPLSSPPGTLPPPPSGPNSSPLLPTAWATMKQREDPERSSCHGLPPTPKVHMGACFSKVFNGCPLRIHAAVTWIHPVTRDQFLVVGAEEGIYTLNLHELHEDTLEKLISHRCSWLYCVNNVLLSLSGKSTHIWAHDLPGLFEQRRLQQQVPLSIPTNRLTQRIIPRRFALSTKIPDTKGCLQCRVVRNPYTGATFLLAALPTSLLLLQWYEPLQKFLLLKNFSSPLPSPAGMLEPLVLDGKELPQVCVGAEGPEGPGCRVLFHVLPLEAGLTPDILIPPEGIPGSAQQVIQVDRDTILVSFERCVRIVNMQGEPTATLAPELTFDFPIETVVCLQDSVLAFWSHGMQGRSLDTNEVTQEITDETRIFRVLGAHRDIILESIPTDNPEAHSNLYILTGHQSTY

FGFR4 = FGFR4 (Homo sapiens, UniProt P22455)
MET(Y1235D) = MET(Y1235D) (Homo sapiens, UniProt P08581, Y1235D)
[3] = target: T3, RSK4(Kin.Dom.2-C-terminal) (Homo sapiens, UniProt Q9UK32)
T3 construct: gene RPS6KA6

CDC2L5 = target: T4, CDC2L5 (Homo sapiens, UniProt Q14004)
T4 construct: gene CDK13

AKT3 = AKT3 (Homo sapiens, UniProt Q9Y243)
GRK2 = GRK2 (Homo sapiens, UniProt P25098)
CHEK1 = CHEK1 (Homo sapiens, UniProt O14757)
[4] = target: ABL1(F317L)-nonphosphorylated (Homo sapiens, UniProt P00519, F317L)
LRRK2 = LRRK2 (Homo sapiens, UniProt Q5S007)
PCTK1 = target: T5, PCTK1 (Homo sapiens, UniProt Q00536)
T5 construct: gene CDK16
T5 sequence (Q00536 whole entry): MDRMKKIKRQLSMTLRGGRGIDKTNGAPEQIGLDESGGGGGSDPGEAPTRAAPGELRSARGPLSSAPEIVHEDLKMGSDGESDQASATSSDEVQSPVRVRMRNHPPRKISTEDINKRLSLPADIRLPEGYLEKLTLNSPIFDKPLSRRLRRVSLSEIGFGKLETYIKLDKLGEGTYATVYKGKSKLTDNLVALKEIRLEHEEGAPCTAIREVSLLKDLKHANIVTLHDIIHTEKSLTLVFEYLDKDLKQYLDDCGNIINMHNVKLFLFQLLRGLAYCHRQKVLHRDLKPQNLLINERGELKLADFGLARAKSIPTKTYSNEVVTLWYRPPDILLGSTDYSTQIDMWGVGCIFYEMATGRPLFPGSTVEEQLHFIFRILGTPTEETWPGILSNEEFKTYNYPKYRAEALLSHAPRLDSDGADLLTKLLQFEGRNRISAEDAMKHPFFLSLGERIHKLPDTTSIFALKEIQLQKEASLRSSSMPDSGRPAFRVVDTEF

LIMK2 = LIMK2 (Homo sapiens, UniProt P53671)
FLT4 = FLT4 (Homo sapiens, UniProt P35916)
PRKCI = PRKCI (Homo sapiens, UniProt P41743)
MST3 = target: T6, MST3 (Homo sapiens, UniProt Q9Y6E0)
T6 construct: gene STK24
T6 sequence (Q9Y6E0 whole entry): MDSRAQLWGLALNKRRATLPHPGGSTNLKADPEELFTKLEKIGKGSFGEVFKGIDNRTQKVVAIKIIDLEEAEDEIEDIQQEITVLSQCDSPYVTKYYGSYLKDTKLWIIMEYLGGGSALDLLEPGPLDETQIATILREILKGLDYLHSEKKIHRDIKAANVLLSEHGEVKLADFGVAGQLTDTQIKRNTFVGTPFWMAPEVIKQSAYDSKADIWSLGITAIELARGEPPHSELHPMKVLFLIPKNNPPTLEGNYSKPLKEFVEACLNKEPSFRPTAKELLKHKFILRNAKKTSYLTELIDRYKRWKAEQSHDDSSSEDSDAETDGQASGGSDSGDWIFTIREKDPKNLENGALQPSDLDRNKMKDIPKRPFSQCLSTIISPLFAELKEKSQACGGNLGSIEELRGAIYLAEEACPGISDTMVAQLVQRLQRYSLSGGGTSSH

PLK1 = PLK1 (Homo sapiens, UniProt P53350)
MLK3 = target: T7, MLK3 (Homo sapiens, UniProt Q16584)
T7 construct: gene MAP3K11

IRAK3 = IRAK3 (Homo sapiens, UniProt Q9Y616)
IRAK3, sequence (Q9Y616 whole entry): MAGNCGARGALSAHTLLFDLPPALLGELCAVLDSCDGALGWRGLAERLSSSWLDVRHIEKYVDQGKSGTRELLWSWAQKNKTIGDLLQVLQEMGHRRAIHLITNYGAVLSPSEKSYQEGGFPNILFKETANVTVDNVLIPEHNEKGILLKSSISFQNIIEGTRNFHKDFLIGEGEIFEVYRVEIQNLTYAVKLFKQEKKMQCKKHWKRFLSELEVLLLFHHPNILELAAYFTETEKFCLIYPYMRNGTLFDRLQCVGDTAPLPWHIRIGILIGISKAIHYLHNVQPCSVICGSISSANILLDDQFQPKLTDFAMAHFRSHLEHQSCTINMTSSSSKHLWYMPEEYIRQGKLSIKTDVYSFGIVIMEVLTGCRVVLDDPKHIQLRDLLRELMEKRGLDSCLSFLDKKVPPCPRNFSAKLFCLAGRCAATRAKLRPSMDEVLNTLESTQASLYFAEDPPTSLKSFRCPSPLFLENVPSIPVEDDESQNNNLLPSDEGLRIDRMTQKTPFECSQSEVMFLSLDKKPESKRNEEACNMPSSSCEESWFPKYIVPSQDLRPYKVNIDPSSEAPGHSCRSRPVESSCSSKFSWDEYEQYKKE

PRKG1, sequence (Q13976 whole entry): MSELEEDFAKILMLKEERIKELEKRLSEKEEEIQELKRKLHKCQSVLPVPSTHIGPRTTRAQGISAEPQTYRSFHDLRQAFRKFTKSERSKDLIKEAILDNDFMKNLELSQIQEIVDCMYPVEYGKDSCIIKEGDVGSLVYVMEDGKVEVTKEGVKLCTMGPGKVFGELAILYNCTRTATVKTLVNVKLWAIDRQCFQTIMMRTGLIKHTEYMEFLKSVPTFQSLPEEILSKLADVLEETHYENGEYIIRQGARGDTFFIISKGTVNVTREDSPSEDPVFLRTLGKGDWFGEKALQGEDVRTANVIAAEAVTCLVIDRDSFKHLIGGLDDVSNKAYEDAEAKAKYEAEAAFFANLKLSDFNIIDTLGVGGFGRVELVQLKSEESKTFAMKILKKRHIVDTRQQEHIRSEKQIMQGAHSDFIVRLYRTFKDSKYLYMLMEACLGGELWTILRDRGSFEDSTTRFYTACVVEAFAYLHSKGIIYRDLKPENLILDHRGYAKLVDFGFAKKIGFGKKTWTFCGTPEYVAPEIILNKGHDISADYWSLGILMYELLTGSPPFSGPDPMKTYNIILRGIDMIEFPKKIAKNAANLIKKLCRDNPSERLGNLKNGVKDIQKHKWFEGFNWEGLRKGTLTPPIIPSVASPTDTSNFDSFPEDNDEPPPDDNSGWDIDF

- remaining activity at 1 µM (PRKG1): 81%
- remaining activity at 1 µM (PIK3C2B): 100%
- remaining activity at 1 µM (ARK5): 82%
- remaining activity at 1 µM (PRKD2): 92%
- remaining activity at 1 µM [1]: 98%
- remaining activity at 1 µM (ALK): 95%
- remaining activity at 1 µM (PIK3CB): 100%
- remaining activity at 1 µM (AKT1): 96%
- remaining activity at 1 µM (EGFR(T790M)): 100%
- remaining activity at 1 µM (NDR2): 100%
- remaining activity at 1 µM (ACVR2B): 93%
- remaining activity at 1 µM (ANKK1): 63%
- remaining activity at 1 µM (CDK2): 86%
- remaining activity at 1 µM [2]: 100%
- remaining activity at 1 µM (CSNK1A1L): 69%
- remaining activity at 1 µM (PIK3CA(Q546K)): 100%
- remaining activity at 1 µM (MAP4K2): 93%
- remaining activity at 1 µM (FGFR4): 85%
- remaining activity at 1 µM (MET(Y1235D)): 68%
- remaining activity at 1 µM [3]: 74%
- remaining activity at 1 µM (CDC2L5): 100%
- remaining activity at 1 µM (AKT3): 96%
- remaining activity at 1 µM (GRK2): 96%
- remaining activity at 1 µM (CHEK1): 96%
- remaining activity at 1 µM [4]: 38%
- remaining activity at 1 µM (LRRK2): 100%
- remaining activity at 1 µM (PCTK1): 100%
- remaining activity at 1 µM (LIMK2): 100%
- remaining activity at 1 µM (FLT4): 96%
- remaining activity at 1 µM (PRKCI): 72%
- remaining activity at 1 µM (MST3): 64%
- remaining activity at 1 µM (PLK1): 97%
- remaining activity at 1 µM (MLK3): 81%
- remaining activity at 1 µM (IRAK3): 86%
Structure (SMILES): Cc1cn(-c2cc(NC(=O)c3ccc4c(c3)CN(c3cncnc3)C[C@@H]4C)cc(C(F)(F)F)c2)cn1 [Compound 6j]
